Measured values: BigSolDB 2.1

N#CCNC(=O)c1cnccc1C(F)(F)F
solubility (mole fraction)
Details	283.15 K	288.15 K	293.15 K	298.15 K	303.15 K	308.15 K	313.15 K	318.15 K	323.15 K
in 1,4-dioxane	–	0.0145	0.0175	0.0208	0.0248	0.0295	0.0348	0.041	0.0482
in THF	0.0263	0.0302	0.0343	0.0387	0.044	0.0502	0.057	0.0645	0.072
in acetone	0.0359	0.041	0.0464	0.0527	0.0595	0.0677	0.0766	0.0871	0.099
in acetonitrile	0.0173	0.0206	0.0245	0.0289	0.034	0.0404	0.0475	0.0557	0.0657
in ethanol	0.00429	0.00546	0.00686	0.00856	0.0107	0.0133	0.0163	0.0202	0.0246
in ethyl acetate	0.00961	0.0114	0.0134	0.0158	0.0182	0.0213	0.0248	0.0288	0.033
in isobutanol	0.00152	0.00202	0.00264	0.00343	0.00441	0.00561	0.0071	0.00885	0.011
in isopropanol	0.00249	0.00328	0.00424	0.00543	0.00696	0.00893	0.0114	0.0144	0.0181
in methanol	0.00943	0.0115	0.0139	0.0168	0.0202	0.0241	0.0286	0.034	0.0402
in n-butanol	0.00298	0.00376	0.00475	0.00589	0.00731	0.00906	0.0111	0.0138	0.0169
in n-butyl acetate	0.00479	0.00572	0.00684	0.00806	0.00932	0.011	0.0128	0.015	0.0173
in n-propanol	0.00267	0.00344	0.00436	0.00552	0.00691	0.00874	0.0109	0.0138	0.0174
